Assay results as given in patent US20150374784A1, “COMPOSITIONS AND METHODS FOR REDUCING GERM CELL DEATH” (Los Angeles Biomedical Research Institute at Harbor-UCLA …, priority 2014, published 2015).

Experiments:
[1] = tested on: germ cells in seminiferous tubules; test: Germ cell apoptosis in mouse seminiferous tubule cultures ex vivo (TUNEL); format: cell-based
Description: A total of 15 young adult (12-13 week-old) mice were used for these ex vivo studies. The animals were sacrificed with a 5% pentobarbital (200 mg/Kg) IP injection. Testes were dissected and after removing the tunica albuginea, seminiferous tubules isolated from testes were cut into small segments under a dissecting microscope and light and dark segments were separated by dissection. Ten to twelve segments were placed (2 mm in length) in each well on a six well plate with 2 ml serum free Ham F-10 culture medium (GIBCO, Life Technologies, Thermo Fisher Scientific Corp., Carlsbad, Calif.) with the following treatments: control (Con, n=10), heat (43° C., 15 minutes, used as a positive control, n=10); HN 10 μg/mL (n=9); DOX 10 mcM (Dox10, n=10); and DOX 10 mcM+Humanin 10 μg/mL (Dox10+HN, n=10). For these experiments, n represents the total number of times the treatment was repeated using different animals. After 12 hours of incubation at 34° C. the seminiferous tubules from each treatment group were used to make “squashed” seminiferous tubule samples on a slide for TUNEL (TdT-mediated dUTP nick-end labeling) assay to detect germ cell apoptosis (Erkkila, et al., 1997; Toppari & Parvinen, 1985). To quantify the rate of germ cell apoptosis under a light microscope at 400× magnification, a square grid fitted within the eyepiece provided a reference area of 62,500 μm^2. The TUNEL positive apoptotic germ cells within the frame of grid were counted in 4 segments of seminiferous tubules in each group. The incidence of germ cell apoptosis was expressed as the number of apoptotic germ cells per mm^2.
A total of 15 mice were used for ex vivo studies. The animals were sacrificed and seminiferous tubules isolated from testes were cut into small segments under a dissecting microscope to identify light (early stages I-IV and late stages XI-XII) of the seminiferous epithelium) and dark (middle stages VII-VIII) segments. Ten to twelve light segments (2 mm in length) were placed per well on a six well plate with 2 ml serum free medium of F-10 Ham nutrient mixture (Gibco, Life Technologies, Grand Island, N.Y.) following these treatments: control (Con, n=15 where n is the number of times the treatment was repeated with segments obtained from different donor animals), heat (43° C., 15 min.; used as a positive control, n=10), HN 10 μg/mL (HN, n=9), doxorubicin 1 μM (Dox1, n=7), doxorubicin 1 μM+HN 10 μg/mL (Dox1+HN, n=7), doxorubicin 10 μM (Dox10, n=10), and doxorubicin 10 μM+HN 10 μg/mL (Dox10+HN, n=10). After 12 hours of incubation at 34° C. with 5% CO2, the seminiferous tubules from the seven treatment groups were used to make “squashed” seminiferous tubule preparations on a slide for TUNEL assay to detect germ cell apoptosis (Erkkila K, et al., 1997). To quantify the rate of germ cell apoptosis, the squashed segments of seminiferous tubules were examined with an American Optical Microscope (Scientific Instruments, Buffalo, N.Y.) with a 40×objective and a 10×eyepiece lens. A square grid fitted within the eyepiece provided a reference area of 62,500 μm^2. The TUNEL positive apoptotic germ cells within the frame of grid were counted in 4 segments of seminiferous tubules in each group. The incidence of germ cell apoptosis was expressed as the number of apoptotic germ cells per mm^2.

[2] = tested on: B16 (melanoma); test: Autophagy induction in B16 (fluorescent microscopy, western blot of LC3-II); format: cell-based, mouse
[3] = tested on: Ki-67 antigen; test: Immunohistochemistry of lung metastases: Ki-67; format: in vivo, mouse; settings: CP 200 mg/kg single IP, HNG 5 mg/kg daily IP 14 days
Description: (§1) Methods: Adult male mouse (n=5/group) were seeded with mouse B16 melanoma cells (100,000 cells/mouse) via tail vein on day 1. One week after melanoma cell inoculation, mice were treated either with a single intraperitoneal injection (IP) of CP (200 mg/kg), or daily IP injections of HNG (5 mg/kg), or both for 14 days. Mice were sacrificed at day 21 and lungs were fixed in formaldehyde. Immunohistochemistry was performed on lung metastases with antibodies against phosphorylated-AMPK (p-AMPK), p-4E-BP1 (downstream effector of mTOR) and Ki-67 antigen (a marker of cell proliferation).

[4] = tested on: mouse B16 melanoma cells; test: Number of metastatic lung tumors, B16 melanoma (Example 9); format: in vivo; settings: day 21; CP 200 mg/kg single IP; HNG 5 mg/kg daily IP 14 days
Description: as §1

[5] = tested on: 4T1 cells; test: 4T1 mouse mammary cancer model, tumor size and weight; settings: in vivo
Description: A mouse mammary cancer model was used which utilizes 4T1 cells transfected with the luciferase gene. Growth and size of 4T1 mammary tumors were detected by bioluminescence imaging (IVIS Luminia II, Perkin Elmer, Waltham, Mass.). Mice (n=5 to 7 per group) were inoculated with 1×10^6 4 T1 cells into the right third mammary gland, and 7 days later they were left untreated or treated with HNG (5 mg/kg/day IP), CP (100 mg/Kg single IP) or HNG+CP for 14 days. Bioluminescence imaging was conducted at days 7 and 12. Animals were sacrificed and tumors were removed on day 14 after the start of treatment. Mammary tumors were smaller in CP and CP+HNG groups compared to the untreated and HNG-treated animals (Data images not shown).

[6] = tested on: germ cells; test: HNG on CP-induced germ cell apoptosis in mice, 24 hours (Example 6); format: in vivo, mouse; settings: CP 200 mg/kg/BW IP, HNG 5 mg/kg/BW IP
Description: To examine the protective effects of HNG on germ cells, adult mice were treated with vehicle (control); HNG (5 mg/kg/BW, intraperitoneal injection IP); CP (200 mg/kg/BW, IP); and CP+HNG for 24 hours.

[7] = tested on: IGF-1; test: Plasma IGF-1 in mice bearing metastatic lung melanomas; format: in vivo, mouse; settings: 14 days; HNG 5 mg/kg/day IP; CP 200 mg/kg IP single injection

Compound	number of apoptotic germ cells induced by DOX ([1]; HN 10 μg/mL + DOX 10 μM, 12 hours)	apoptosis induced by low dose doxorubicin ([1]; HN 10 μg/mL + doxorubicin 1 μM, 12 hours)	germ cell apoptosis, HN treatment alone compared with control ([1]; HN 10 μg/mL, 12 hours ex vivo culture)	heat induced germ cell apoptosis ([1]; HN 10 μg/mL, heat 43° C., 15 min)	autophagy [2]	mean Ki-67 index [3]	decrease in number of metastatic lung tumors compared to non-treated mice [4]	mammary tumor size (bioluminescence imaging) [5]	germ cell apoptosis (apoptotic index) [6]	plasma IGF-1 levels [7]
MAPRGFSCLLLLTSEIDLPVKRRA [HN, 24-amino acid mitochondrial derived peptide]	significantly reduced the number of apoptotic germ cells	did not significantly decrease apoptosis	had no significant effect on germ cell apoptosis	prevented the heat induced germ cell apoptosis	induces autophagy					
O=P1(N(CCCl)CCCl)NCCCO1 (stereo not shown) [CP, cyclophosphamide monohydrate]						30.0±16.2	~50%	smaller	significantly increased germ cell apoptosis in all stages of spermatogenesis	modestly suppressed IGF-1
